The nature of assay [1]: cells. In kind it is functional, cell-based.
A short description of assay [2]: cells. The class given is functional, cell-based. This is another data set of the same source.
A short description of assay [3]: Luminescence-based cell-based high throughput dose response assay to identify activators of the DAF-12 from the parasite S. stercoralis (ssDAF-12). In kind it is functional.
For assay [4], the target named is T1, Oxysterols receptor LXR-beta (Homo sapiens, UniProt P55055).
T1 sequence (P55055 whole entry): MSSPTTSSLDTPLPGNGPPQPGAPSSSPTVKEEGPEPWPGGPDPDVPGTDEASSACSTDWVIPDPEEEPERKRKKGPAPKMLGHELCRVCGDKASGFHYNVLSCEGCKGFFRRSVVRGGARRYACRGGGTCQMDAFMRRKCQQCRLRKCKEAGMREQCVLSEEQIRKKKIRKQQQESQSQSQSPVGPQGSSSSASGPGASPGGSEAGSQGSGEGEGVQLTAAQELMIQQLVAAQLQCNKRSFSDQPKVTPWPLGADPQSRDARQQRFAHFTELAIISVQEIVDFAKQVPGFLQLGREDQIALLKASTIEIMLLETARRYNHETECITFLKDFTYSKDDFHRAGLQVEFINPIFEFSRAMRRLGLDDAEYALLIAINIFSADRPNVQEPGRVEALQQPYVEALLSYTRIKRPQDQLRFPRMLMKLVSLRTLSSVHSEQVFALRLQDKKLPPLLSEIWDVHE
Nature of the assay: LXR agonists, Gal4 luciferase reporter, dose response, counter-screen for ssDAF-12 agonist project, cell-based, luminescence, HEK293, S. stercoralis campaign (AID 720737). The class given is functional. The settings on record: read-out: IC50 (the source's name).

Assay [5] has as its target T2, 1-phosphatidylinositol 4,5-bisphosphate phosphodiesterase beta-3 (Homo sapiens, UniProt Q01970).
T2 sequence (Q01970 whole entry): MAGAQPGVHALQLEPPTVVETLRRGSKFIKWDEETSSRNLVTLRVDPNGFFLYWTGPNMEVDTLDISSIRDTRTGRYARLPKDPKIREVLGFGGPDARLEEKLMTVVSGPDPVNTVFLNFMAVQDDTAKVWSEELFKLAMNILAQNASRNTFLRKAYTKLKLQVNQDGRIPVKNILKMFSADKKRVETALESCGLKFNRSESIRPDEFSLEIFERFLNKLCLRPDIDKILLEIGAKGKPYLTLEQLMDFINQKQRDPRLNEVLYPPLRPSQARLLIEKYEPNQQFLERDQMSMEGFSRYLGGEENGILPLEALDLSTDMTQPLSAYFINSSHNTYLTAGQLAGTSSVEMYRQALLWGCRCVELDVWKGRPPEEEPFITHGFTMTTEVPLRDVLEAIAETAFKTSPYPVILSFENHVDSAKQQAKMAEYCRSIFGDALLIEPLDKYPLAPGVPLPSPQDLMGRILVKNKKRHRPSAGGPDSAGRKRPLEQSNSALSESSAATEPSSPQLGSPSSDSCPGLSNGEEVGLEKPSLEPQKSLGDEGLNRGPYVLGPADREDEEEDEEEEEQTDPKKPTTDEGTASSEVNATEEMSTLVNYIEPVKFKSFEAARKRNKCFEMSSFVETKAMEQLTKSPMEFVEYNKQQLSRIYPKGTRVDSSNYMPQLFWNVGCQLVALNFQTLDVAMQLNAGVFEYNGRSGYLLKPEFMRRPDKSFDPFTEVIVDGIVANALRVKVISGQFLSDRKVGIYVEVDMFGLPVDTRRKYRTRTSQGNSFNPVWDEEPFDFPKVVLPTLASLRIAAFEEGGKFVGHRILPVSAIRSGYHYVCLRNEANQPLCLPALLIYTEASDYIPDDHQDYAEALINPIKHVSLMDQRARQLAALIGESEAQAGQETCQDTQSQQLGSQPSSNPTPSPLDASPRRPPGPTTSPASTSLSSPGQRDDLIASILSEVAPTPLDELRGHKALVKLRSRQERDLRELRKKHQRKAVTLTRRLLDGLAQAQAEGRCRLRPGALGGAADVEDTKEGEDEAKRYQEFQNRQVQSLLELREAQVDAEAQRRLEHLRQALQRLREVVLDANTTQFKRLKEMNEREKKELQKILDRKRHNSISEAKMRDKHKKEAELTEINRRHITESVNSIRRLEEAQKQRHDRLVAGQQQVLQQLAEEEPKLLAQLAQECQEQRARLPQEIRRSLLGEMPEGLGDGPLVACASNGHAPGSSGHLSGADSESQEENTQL
The assay can be described thus: Fluorescence-based biochemical high throughput dose response assay to identify inhibitors of phospholipase C isozymes (PLC-B3).

Assay [6] has as its target T3, 1-phosphatidylinositol 4,5-bisphosphate phosphodiesterase gamma-1 (Homo sapiens, UniProt P19174).
T3 sequence (P19174 whole entry): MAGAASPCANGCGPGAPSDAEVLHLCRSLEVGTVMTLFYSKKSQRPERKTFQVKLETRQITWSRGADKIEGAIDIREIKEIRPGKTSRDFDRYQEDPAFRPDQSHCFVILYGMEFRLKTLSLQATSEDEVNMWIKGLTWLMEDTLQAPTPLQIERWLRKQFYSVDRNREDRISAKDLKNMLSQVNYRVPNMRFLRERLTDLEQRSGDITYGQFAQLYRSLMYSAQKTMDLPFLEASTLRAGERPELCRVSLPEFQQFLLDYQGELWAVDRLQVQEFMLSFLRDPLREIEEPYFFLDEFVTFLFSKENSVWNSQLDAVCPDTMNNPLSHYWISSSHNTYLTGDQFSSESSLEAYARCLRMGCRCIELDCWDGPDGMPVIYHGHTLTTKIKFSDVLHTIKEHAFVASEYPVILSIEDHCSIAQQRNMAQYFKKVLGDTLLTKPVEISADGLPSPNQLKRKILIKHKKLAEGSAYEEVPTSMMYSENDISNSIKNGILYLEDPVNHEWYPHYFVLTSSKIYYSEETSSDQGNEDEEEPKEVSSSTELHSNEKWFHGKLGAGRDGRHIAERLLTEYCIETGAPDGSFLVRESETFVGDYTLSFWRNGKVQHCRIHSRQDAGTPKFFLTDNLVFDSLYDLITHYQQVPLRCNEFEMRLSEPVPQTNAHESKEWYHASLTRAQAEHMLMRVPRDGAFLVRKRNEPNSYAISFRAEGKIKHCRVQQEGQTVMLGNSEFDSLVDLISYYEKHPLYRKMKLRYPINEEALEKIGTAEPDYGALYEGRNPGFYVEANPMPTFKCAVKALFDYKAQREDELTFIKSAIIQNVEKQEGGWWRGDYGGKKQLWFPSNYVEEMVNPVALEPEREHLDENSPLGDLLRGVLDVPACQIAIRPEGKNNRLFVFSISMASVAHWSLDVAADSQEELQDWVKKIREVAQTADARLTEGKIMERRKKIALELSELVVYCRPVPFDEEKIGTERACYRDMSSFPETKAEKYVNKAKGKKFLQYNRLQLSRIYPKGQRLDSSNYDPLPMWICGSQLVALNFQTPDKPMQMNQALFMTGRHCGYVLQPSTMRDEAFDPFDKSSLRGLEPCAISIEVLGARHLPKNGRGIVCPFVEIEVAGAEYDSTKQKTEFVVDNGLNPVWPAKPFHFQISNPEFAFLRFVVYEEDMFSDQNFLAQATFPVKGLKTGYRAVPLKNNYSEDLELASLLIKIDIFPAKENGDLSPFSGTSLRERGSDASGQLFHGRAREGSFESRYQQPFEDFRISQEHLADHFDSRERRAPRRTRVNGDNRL
Nature of the assay: Counterscreen for inhibitors of phospholipase C isozymes (PLC-B3): Fluorescence-based biochemical high throughput dose response assay to identify inhibitors of phospholipase C isozymes (PLC-gamma1).

The target in assay [7] is T4, Heat shock factor protein 1 (Mus musculus, UniProt P38532).
T4 sequence (P38532 whole entry): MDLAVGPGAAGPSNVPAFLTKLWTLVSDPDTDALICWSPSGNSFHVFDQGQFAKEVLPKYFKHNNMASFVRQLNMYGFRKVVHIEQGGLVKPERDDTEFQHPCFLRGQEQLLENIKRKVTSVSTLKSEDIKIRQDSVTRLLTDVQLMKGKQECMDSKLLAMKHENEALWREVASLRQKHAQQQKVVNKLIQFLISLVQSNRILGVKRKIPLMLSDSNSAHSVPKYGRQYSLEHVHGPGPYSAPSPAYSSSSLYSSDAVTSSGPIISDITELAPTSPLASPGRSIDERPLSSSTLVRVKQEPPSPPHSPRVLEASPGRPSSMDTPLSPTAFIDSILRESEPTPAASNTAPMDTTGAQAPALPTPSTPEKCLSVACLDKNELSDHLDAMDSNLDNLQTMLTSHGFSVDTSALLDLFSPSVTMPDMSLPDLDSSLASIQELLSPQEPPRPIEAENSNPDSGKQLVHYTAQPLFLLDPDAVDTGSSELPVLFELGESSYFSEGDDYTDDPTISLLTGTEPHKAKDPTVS
The assay can be described thus: HSF1 potentiators in luciferase reporter cells, confirmation, cell-based, NIH3T3, luminescence, dose retest (AID 435004).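 Also: stress induced by proteasome inhibitor MG132 added 30 min after compound; luciferase reporter driven by HSF1 response element in NIH3T3 cells; actives raise luminescence as potentiators of the MG132 stress response.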 In kind it is functional.

The target in the next assay is Kallikrein-7 (Homo sapiens, UniProt P49862). Nature of the assay: Fluorescence Intensity-based biochemical primary high throughput dose response assay to identify activators of kallikrein-7 (K7) zymogen.
The nature of assay [8]: ADAM10 protease inhibitors, dose response, selectivity assay for ADAM17 exosite inhibitor project, biochemical, FRET peptide substrate, recombinant human ADAM10 (AID 743259).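 Also: ADAM10 enzyme cleaving a FRET peptide substrate.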
Assay [9] concerns the target Disintegrin and metalloproteinase domain-containing protein 17 (Homo sapiens, UniProt P78536). Nature of the assay: exosite inhibitors of ADAM17, dose response, biochemical (AID 743260).
Another assay deals with HeLa. The assay can be described thus: HeLa cell cytotoxicity, dose response, cytotoxicity control, ATP luminescence, cherry-pick samples (AID 687004). In kind it is functional, cell-based. The following applies: Homo sapiens.
The next assay has as its system Vero. The assay can be described thus: cells. The class given is functional. The settings on record: Chlorocebus sabaeus.
Assay [10] concerns the target T5, High affinity choline transporter 1 (Homo sapiens, UniProt Q9GZV3).
T5 sequence (Q9GZV3 whole entry): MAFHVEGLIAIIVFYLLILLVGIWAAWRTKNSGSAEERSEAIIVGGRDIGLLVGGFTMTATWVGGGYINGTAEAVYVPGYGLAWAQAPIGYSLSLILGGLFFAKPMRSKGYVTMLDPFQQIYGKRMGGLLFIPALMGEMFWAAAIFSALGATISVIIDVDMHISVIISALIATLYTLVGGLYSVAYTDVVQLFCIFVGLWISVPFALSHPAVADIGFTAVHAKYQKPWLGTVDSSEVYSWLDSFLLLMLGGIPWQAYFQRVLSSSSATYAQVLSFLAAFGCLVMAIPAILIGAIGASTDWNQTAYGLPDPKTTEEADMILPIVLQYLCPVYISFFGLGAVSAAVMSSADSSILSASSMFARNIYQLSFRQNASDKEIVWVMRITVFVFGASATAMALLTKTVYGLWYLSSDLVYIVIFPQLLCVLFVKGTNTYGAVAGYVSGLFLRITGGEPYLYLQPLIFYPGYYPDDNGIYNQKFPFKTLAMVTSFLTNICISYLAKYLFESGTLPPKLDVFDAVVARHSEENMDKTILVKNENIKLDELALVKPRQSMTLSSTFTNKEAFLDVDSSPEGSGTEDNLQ
The assay can be described thus: CHT inhibitors, dose response, cell-based, 5-point CRC, membrane potential dye (AID 504840). The class given is functional.

Assay [11] can be described thus: HEp-2 cell cytotoxicity, dose response, cytotoxicity control for RSV inhibitor project, HTS (AID 2410). The class given is functional. The following applies: human respiratory syncytial virus.

Consider 12 compounds from ChEMBL document CHEMBL1201862, “PubChem BioAssay data set” (2004).

Active and inactive are the calls of the source.

Chain of Disintegrin and metalloproteinase domain-containing protein 17 (P78536 whole entry, the tested form may be a part): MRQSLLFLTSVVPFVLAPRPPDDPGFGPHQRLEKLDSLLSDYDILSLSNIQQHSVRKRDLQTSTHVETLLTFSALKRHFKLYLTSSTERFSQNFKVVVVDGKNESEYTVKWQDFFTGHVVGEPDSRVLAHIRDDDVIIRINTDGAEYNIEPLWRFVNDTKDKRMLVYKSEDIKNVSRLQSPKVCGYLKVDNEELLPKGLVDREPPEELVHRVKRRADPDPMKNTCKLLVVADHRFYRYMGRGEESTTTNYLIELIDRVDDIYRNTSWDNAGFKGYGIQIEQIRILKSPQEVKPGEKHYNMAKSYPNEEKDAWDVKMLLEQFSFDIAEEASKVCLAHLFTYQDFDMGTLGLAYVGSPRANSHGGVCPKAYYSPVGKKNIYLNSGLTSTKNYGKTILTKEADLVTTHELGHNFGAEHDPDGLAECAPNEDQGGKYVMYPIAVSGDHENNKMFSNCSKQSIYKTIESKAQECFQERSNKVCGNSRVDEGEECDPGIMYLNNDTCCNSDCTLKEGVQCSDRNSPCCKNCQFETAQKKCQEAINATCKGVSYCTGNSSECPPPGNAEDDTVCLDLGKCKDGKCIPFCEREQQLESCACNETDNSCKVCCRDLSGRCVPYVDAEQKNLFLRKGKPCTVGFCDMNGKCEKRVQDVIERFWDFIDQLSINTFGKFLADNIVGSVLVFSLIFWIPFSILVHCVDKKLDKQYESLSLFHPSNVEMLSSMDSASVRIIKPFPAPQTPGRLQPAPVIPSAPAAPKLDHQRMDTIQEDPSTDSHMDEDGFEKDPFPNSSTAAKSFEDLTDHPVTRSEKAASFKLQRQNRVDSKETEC
Chain of Kallikrein-7 (P49862 whole entry): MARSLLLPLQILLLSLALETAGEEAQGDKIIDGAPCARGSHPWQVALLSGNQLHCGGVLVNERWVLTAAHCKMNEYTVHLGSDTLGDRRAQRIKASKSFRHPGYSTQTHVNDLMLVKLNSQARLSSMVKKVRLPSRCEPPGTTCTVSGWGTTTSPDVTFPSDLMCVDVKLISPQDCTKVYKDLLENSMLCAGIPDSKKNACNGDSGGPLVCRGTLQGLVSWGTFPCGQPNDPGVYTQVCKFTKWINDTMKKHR

With `Cc1nn(C(=O)CCC(=O)NCCc2ccccc2)c2ccccc12`, the IC50 in the assay “cells [1]” was > 29.9 µM (inactive). In the assay “cells [2]”, the EC50 is > 29.9 µM (inactive).

For `CC(C)NC(=O)c1nc2ccccc2s1`, the IC50 in assay [3] is > 67.5 µM (inactive). The EC50 in assay [4] is > 67.5 µM (inactive).

`O=C(Cc1cccs1)N1CCC(c2nc(O)c3nnn(Cc4ccccc4)c3n2)CC1`: the IC50 in assay [5] and in assay [6] was > 122 µM (inactive) in each case.

Consider `O=[N+]([O-])c1ccc(Sc2ncccn2)c([N+](=O)[O-])c1`, for which the IC50 in assay [5] and in assay [6] was > 123 µM (inactive) each time. Moreover, the EC50 in [7] was 6.83 µM (active).

Regarding `O=C(/C=C/c1ccccc1)c1c[nH]c2ccccc12`, the IC50 in [3] is > 67.4 µM (inactive). Further, the EC50 in assay [4] was > 67.4 µM (inactive).

Regarding `Cc1cc(=O)oc2cc(OCC(=O)N3CCOCC3)c(Cl)cc12`, on Kallikrein-7, the EC50 is > 69.6 µM (inactive).

`O=C1NC(=O)C(c2ccc(Cl)cc2)N1` (centres undefined): the IC50 in [8] and in assay [9] was > 69.4 µM (inactive) in each case.

In the case of `COc1cccc(C(NC(C)=O)c2nc(-c3ccc4ccccc4c3)cs2)c1` (centres undefined), the IC50 in [8] was 18.5 µM (inactive); in assay [9], > 69.5 µM (inactive).

`C[C@@H]1CN([C@@H](C)CO)C(=O)Cc2cc(NS(=O)(=O)c3ccccc3)ccc2O[C@@H]1CN(C)Cc1ccc(Cl)c(Cl)c1`: the AC50 in the assay on HeLa was 43.7 µM (active).

Regarding `C[C@H](CO)N1C[C@H](C)[C@@H](CN(C)Cc2ccncc2)Oc2ccc(NC(=O)CCC(F)(F)F)cc2C1=O`, in the assay on HeLa, the AC50 was 23.4 µM (active).

As for `COc1ccc(OC)c(/C=N/NC(=O)CN2CCSCC2)c1`, the EC50 at Kallikrein-7 was 10.5 µM (inactive).

On to `CN1C(=O)/C(=N\c2ccc(O)cc2)c2c3ccccc3c(O)c3cccc1c23`, for which the values for the IC50 in [8], in [9] and in assay [10] were 28.9 µM (inactive), > 69.5 µM (inactive) and 12.3 µM (active), respectively. Besides, the CC50 was > 25 µM (active) in the assay on Vero and 16.8 µM (active) in assay [11].
